In patent US20090018134A1, “Compounds - 945” (AstraZeneca AB, priority 2007, published 2009):

Target: T1, mTOR (Homo sapiens, UniProt P42345)
T1 construct: FLAG; made in house
Experiment: In Vitro mTOR Kinase Assay (Echo), Test (a)(ii)
Assay type: biochemical
Conditions: table of enzyme assay Test (a)(ii); read-out: Test (a)(ii) IC50
Method in brief: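 Inhibition of truncated mTOR (1362-2549, FLAG-tagged, purified from stably transfected HEK293 cells) is measured as reduced AlphaScreen signal from a phospho-T389-recognising antibody bound to the biotinylated peptide product. Kinase incubation lasts 2 hours at room temperature. Potency is given as IC50.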

T1 sequence (P42345 1362-2549): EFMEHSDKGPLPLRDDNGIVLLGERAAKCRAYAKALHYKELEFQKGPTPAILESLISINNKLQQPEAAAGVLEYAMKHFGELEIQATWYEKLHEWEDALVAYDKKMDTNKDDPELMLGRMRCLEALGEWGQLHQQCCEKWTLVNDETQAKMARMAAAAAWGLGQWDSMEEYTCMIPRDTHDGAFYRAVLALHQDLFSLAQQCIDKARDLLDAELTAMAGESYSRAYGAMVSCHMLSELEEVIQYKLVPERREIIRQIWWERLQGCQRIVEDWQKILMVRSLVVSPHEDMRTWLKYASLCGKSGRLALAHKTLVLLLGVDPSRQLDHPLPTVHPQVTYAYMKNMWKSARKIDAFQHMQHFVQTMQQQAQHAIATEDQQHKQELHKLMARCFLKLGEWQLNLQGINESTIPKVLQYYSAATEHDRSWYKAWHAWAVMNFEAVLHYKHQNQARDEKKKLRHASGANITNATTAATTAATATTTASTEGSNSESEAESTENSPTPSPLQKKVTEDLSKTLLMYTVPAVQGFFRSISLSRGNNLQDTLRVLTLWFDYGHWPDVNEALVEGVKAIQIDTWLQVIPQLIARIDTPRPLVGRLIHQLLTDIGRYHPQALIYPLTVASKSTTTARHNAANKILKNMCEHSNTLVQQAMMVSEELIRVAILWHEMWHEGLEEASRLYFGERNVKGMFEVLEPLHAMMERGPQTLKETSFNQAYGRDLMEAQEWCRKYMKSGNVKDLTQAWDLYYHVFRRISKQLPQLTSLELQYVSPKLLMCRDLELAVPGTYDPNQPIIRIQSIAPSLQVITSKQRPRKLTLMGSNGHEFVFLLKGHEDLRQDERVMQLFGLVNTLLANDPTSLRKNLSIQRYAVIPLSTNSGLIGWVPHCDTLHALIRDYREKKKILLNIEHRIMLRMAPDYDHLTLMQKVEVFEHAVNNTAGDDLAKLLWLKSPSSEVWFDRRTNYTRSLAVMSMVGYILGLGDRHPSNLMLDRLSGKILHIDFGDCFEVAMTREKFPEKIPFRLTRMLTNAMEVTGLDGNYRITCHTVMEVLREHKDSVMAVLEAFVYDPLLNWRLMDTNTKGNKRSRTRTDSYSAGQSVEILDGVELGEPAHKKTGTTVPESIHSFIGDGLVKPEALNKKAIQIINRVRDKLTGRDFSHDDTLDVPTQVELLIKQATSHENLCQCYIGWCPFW

IC50 [nM] | SMILES
1.31 | C[C@H]1COCCN1c1cc(C2(S(=O)(=O)CCCO)CC2)nc(-c2ccc(NC(=O)Nc3ccccn3)cc2)n1 [Example 31c, 1-[4-[4-[1-(3-hydroxypropylsulfonyl)cyclopropyl]-6-[(3S)-3-methylmorpholin-4-yl]pyrimidin-2-yl]phenyl]-3-pyridin-2-ylurea]
9.55 | CC(C)CNC(=O)Nc1ccc(-c2nc(N3CCOC[C@@H]3C)cc(C3(S(=O)(=O)CCCO)CC3)n2)cc1 [Example 31d, 1-[4-[4-[1-(3-hydroxypropylsulfonyl)cyclopropyl]-6-[(3S)-3-methylmorpholin-4-yl]pyrimidin-2-yl]phenyl]-3-(2-methylpropyl)urea]
1.07 | CCNC(=O)Nc1ccc(-c2nc(N3CCOC[C@@H]3C)cc(C3(S(=O)(=O)CCCO)CC3)n2)cc1 [Example 31e, 1-ethyl-3-[4-[4-[1-(3-hydroxypropylsulfonyl)cyclopropyl]-6-[(3S)-3-methylmorpholin-4-yl]pyrimidin-2-yl]phenyl]urea]
1.6 | C[C@H]1COCCN1c1cc(C2(S(=O)(=O)CCCO)CC2)nc(-c2ccc(NC(=O)NCCO)cc2)n1 [Example 31f, 3-(2-hydroxyethyl)-1-[4-[4-[1-(3-hydroxypropylsulfonyl)cyclopropyl]-6-[(3S)-3-methylmorpholin-4-yl]pyrimidin-2-yl]phenyl]urea]
3.23 | CNC(=O)Nc1ccc(-c2nc(N3CCOC[C@@H]3C)cc(C3(S(=O)(=O)CCCO)CC3)n2)cc1 [Example 31g, 1-[4-[4-[1-(3-hydroxypropylsulfonyl)cyclopropyl]-6-[(3S)-3-methylmorpholin-4-yl]pyrimidin-2-yl]phenyl]-3-methylurea]
0.209 | C[C@H]1COCCN1c1cc(C2(S(=O)(=O)CCCO)CC2)nc(-c2ccc(NC(=O)Nc3ccc(C(F)(F)F)cc3)cc2)n1 [Example 31h, 1-[4-[4-[1-(3-hydroxypropylsulfonyl)cyclopropyl]-6-[(3S)-3-methylmorpholin-4-yl]pyrimidin-2-yl]phenyl]-3-[4-(trifluoromethyl)phenyl]urea]
3.26 | C[C@H]1COCCN1c1cc(C2(S(=O)(=O)CCCO)CC2)nc(-c2ccc(NC(=O)NCCCO)cc2)n1 [Example 31i, 3-(3-hydroxypropyl)-1-[4-[4-[1-(3-hydroxypropylsulfonyl)cyclopropyl]-6-[(3S)-3-methylmorpholin-4-yl]pyrimidin-2-yl]phenyl]urea]
1.03 | C[C@H]1COCCN1c1cc(C2(S(=O)(=O)CCCO)CC2)nc(-c2ccc(NC(=O)Nc3cnn(C)c3)cc2)n1 [Example 31j, 1-[4-[4-[1-(3-hydroxypropylsulfonyl)cyclopropyl]-6-[(3S)-3-methylmorpholin-4-yl]pyrimidin-2-yl]phenyl]-3-(1-methylpyrazol-4-yl)urea]
1.91 | CCCNC(=O)Nc1ccc(-c2nc(N3CCOC[C@@H]3C)cc(C3(S(=O)(=O)CCCO)CC3)n2)cc1 [Example 31k, 3-[4-[4-[1-(3-hydroxypropylsulfonyl)cyclopropyl]-6-[(3S)-3-methylmorpholin-4-yl]pyrimidin-2-yl]phenyl]-1-propylurea]
214 | C[C@H]1COCCN1c1cc(C2(S(=O)(=O)CCCO)CC2)nc(-c2ccc(NC(=O)NCCN(C)C)cc2)n1 [Example 31l, 3-(2-dimethylaminoethyl)-1-[4-[4-[1-(3-hydroxypropylsulfonyl)cyclopropyl]-6-[(3S)-3-methylmorpholin-4-yl]pyrimidin-2-yl]phenyl]urea]
5.91 | C[C@H]1COCCN1c1cc(C2(S(=O)(=O)CCCO)CC2)nc(-c2ccc(NC(=O)NC(C)(C)CO)cc2)n1 [Example 31m, 3-(1-hydroxy-2-methylpropan-2-yl)-1-[4-[4-[1-(3-hydroxypropylsulfonyl)cyclopropyl]-6-[(3S)-3-methylmorpholin-4-yl]pyrimidin-2-yl]phenyl]urea]
3.15 | CNC(=O)Nc1ccc(-c2nc(N3CCOCC3)cc(C3(C(=O)N(C)C)CC3)n2)cc1 [Example 32, N,N-Dimethyl-1-[2-[4-(methylcarbamoylamino)phenyl]-6-morpholin-4-ylpyrimidin-4-yl]cyclopropane-1-carboxamide]
42.5 | CNC(=O)Nc1ccc(-c2nc(N3CCOCC3)cc(C3(C(=O)N4CCOC[C@@H]4C)CC3)n2)cc1 [Example 32a, 3-methyl-1-[4-[4-[1-[(3S)-3-methylmorpholine-4-carbonyl]cyclopropyl]-6-morpholin-4-ylpyrimidin-2-yl]phenyl]urea]
8.29 | CNC(=O)Nc1ccc(-c2nc(N3CCOCC3)cc(C3(C(=O)NC4CC4)CC3)n2)cc1 [Example 32b, N-cyclopropyl-1-[2-[4-(methylcarbamoylamino)phenyl]-6-morpholin-4-ylpyrimidin-4-yl]cyclopropane-1-carboxamide]
2.88 | CNC(=O)Nc1ccc(-c2nc(N3CCOCC3)cc(C3(C(=O)N(C)C4CC4)CC3)n2)cc1 [Example 32c, N-cyclopropyl-N-methyl-1-[2-[4-(methylcarbamoylamino)phenyl]-6-morpholin-4-ylpyrimidin-4-yl]cyclopropane-1-carboxamide]
13.1 | CNC(=O)Nc1ccc(-c2nc(N3CCOCC3)cc(C3(C(=O)N4CCN(C)CC4)CC3)n2)cc1 [Example 32d, 3-methyl-1-[4-[4-[1-(4-methylpiperazine-1-carbonyl)cyclopropyl]-6-morpholin-4-ylpyrimidin-2-yl]phenyl]urea]
9.29 | CN(C)C(=O)C1(c2cc(N3CCOCC3)nc(-c3ccc(NC(=O)NC4CC4)cc3)n2)CC1 [Example 33, 1-[2-[4-(Cyclopropylcarbamoylamino)phenyl]-6-morpholin-4-ylpyrimidin-4-yl]-N,N-dimethylcyclopropane-1-carboxamide]
58.4 | C[C@H]1COCCN1C(=O)C1(c2cc(N3CCOCC3)nc(-c3ccc(NC(=O)NC4CC4)cc3)n2)CC1 [Example 33a, 3-cyclopropyl-1-[4-[4-[1-[(3S)-3-methylmorpholine-4-carbonyl]cyclopropyl]-6-morpholin-4-ylpyrimidin-2-yl]phenyl]urea]
12 | O=C(Nc1ccc(-c2nc(N3CCOCC3)cc(C3(C(=O)NC4CC4)CC3)n2)cc1)NC1CC1 [Example 33b, N-cyclopropyl-1-[2-[4-(cyclopropylcarbamoylamino)phe-nyl]-6-morpholin-4-ylpyrimidin-4-yl]cyclopropane-1-carboxamide]
2.58 | CN(C(=O)C1(c2cc(N3CCOCC3)nc(-c3ccc(NC(=O)NC4CC4)cc3)n2)CC1)C1CC1 [Example 33c, N-cyclopropyl-1-[2-[4-(cyclopropylcarbamoylamino)phe-nyl]-6-morpholin-4-ylpyrimidin-4-yl]-N-methylcyclopropane-1-carboxamide]
133 | CN1CCN(C(=O)C2(c3cc(N4CCOCC4)nc(-c4ccc(NC(=O)NC5CC5)cc4)n3)CC2)CC1 [Example 33d, 3-cyclopropyl-1-[4-[4-[1-(4-methylpiperazine-1-carbonyl)cyclopropyl]-6-morpholin-4-ylpyrimidin-2-yl]phenyl]urea]
4.05 | CN(C)C(=O)C1(c2cc(N3CCOCC3)nc(-c3ccc(NC(=O)NCCO)cc3)n2)CC1 [Example 34, 1-[2-[4-(2-Hydroxyethylcarbamoylamino)phenyl]-6-morpholin-4-ylpyrimidin-4-yl]-N,N-dimethylcyclopropane-1-carboxamide]
38.7 | C[C@H]1COCCN1C(=O)C1(c2cc(N3CCOCC3)nc(-c3ccc(NC(=O)NCCO)cc3)n2)CC1 [Example 34a, 3-(2-hydroxyethyl)-1-[4-[4-[1-[(3S)-3-methylmorpholine-4-carbonyl]cyclopropyl]-6-morpholin-4-ylpyrimidin-2-yl]phenyl]urea]
10.9 | O=C(NCCO)Nc1ccc(-c2nc(N3CCOCC3)cc(C3(C(=O)NC4CC4)CC3)n2)cc1 [Example 34b, N-cyclopropyl-1-[2-[4-(2-hydroxyethylcarbamoylamino)phe-nyl]-6-morpholin-4-ylpyrimidin-4-yl]cyclopropane-1-carboxamide]
3.45 | CN(C(=O)C1(c2cc(N3CCOCC3)nc(-c3ccc(NC(=O)NCCO)cc3)n2)CC1)C1CC1 [Example 34c, N-cyclopropyl-1-[2-[4-(2-hydroxyethylcarbamoylamino)phe-nyl]-6-morpholin-4-ylpyrimidin-4-yl]-N-methylcyclopropane-1-carboxamide]
86.3 | CN1CCN(C(=O)C2(c3cc(N4CCOCC4)nc(-c4ccc(NC(=O)NCCO)cc4)n3)CC2)CC1 [Example 34d, 3-(2-hydroxyethyl)-1-[4-[4-[1-(4-methylpiperazine-1-carbonyl)cyclopropyl]-6-morpholin-4-ylpyrimidin-2-yl]phenyl]urea]
5.31 | CNC(=S)Nc1ccc(-c2nc(N3CCOC[C@@H]3C)cc(C3(S(C)(=O)=O)CC3)n2)cc1 [Example 35, 3-Methyl-1-[4-[4-[(3S)-3-methylmorpholin-4-yl]-6-(1-methylsulfonylcyclopropyl)pyrimidin-2-yl]phenyl]thiourea]
5.52 | CCNC(=S)Nc1ccc(-c2nc(N3CCOC[C@@H]3C)cc(C3(S(C)(=O)=O)CC3)n2)cc1 [Example 35a, 3-ethyl-1-[4-[4-[(3S)-3-methylmorpholin-4-yl]-6-(1-methylsulfonylcyclopropyl)pyrimidin-2-yl]phenyl]thiourea]
0.577 | C[C@H]1COCCN1c1cc(C2(S(C)(=O)=O)CC2)nc(-c2ccc(NC(=S)NCCO)cc2)n1 [Example 35b, 3-(2-hydroxyethyl)-1-[4-[4-[(3S)-3-methylmorpholin-4-yl]-6-(1-methylsulfonylcyclopropyl)pyrimidin-2-yl]phenyl]thiourea]
108 | C[C@H]1COCCN1c1cc(C2(S(C)(=O)=O)CC2)nc(-c2ccc(NC(=S)NCCN(C)C)cc2)n1 [Example 35c, 3-(2-dimethylaminoethyl)-1-[4-[4-[(3S)-3-methylmorpholin-4-yl]-6-(1-methylsulfonylcyclopropyl)pyrimidin-2-yl]phenyl]thiourea]
